# Results from article PMC9668914, “Understanding VPAC receptor family peptide binding and selectivity” (Nature Communications, 2022).
# Where two headings read alike, the source gives them in different places.
# Legend:
# [1] = molecular target: T1, Nluc-PAC1R (Homo sapiens, UniProt P41586); experiment: NanoBRET competition binding, AF568-PACAP27 probe (Fig. 5c); conditions: COS-7, 30 nM AF568-PACAP27, 4 °C, read-out: pIC50, PAC1R competition binding (converted)
# T1 construct: A construct containing N-terminal NLuc immediately after the native signal peptide of PAC1R was also generated in pcDNA3.1; expressed in transfected cells; host or cells: COS-7 (transient, PEI; whole cells at 4 °C)
# T1 sequence (P41586 21-468): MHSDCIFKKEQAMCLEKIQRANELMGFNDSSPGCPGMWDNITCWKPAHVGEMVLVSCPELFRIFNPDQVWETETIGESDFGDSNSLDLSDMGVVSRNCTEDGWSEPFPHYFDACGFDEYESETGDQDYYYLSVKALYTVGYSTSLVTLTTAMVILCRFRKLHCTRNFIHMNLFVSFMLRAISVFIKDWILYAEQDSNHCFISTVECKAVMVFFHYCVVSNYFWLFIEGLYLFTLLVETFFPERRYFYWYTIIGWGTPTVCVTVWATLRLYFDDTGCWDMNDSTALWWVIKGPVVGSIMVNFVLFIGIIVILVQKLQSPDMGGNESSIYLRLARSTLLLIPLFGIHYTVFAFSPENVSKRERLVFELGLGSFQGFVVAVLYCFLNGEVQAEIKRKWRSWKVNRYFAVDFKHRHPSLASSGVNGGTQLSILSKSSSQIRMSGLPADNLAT
# Excerpt: (§1) An HA signal peptide was inserted in place of the native signal peptide of the receptors and a FLAG epitope was incorporated into the receptor N-terminus immediately after the signal peptide. A His tag was fused to C-terminus of the receptor. 3C protease cleavage sites were inserted between both the FLAG and His tags and the receptor. […] The following PAC1R and VPAC1R mutants were also generated using Quikchange mutagenesis: PAC1R C25A, PAC1R C219A, PAC1R C25A/C219A, VPAC1R C37A and VPAC1R C208A. For all PAC1R constructs, we used the PAC1R null (PAC1n) splice variant. A construct containing N-terminal NLuc immediately after the native signal peptide of PAC1R was also generated in pcDNA3.1.
# Therefore, the lysine residue at position 21 was replaced with a cysteine residue (^21C) for the facile conjugation of fluorophore via thiol-maleimide click reaction. The resulting target peptide ^21C-PACAP27 (Mutant fragment) with amidated C-terminus was synthesized by standard Fmoc-solid phase peptide synthesis method[43] and purified by Reversed-phase high-performance liquid chromatography (RP-HPLC). […] of Alexa Fluor™ 568F was purchased from ThermoFisher Scientific (Catalog number: A20003). The thiol-maleimide conjugation reaction was carried out by our published protocol. […] The molecular weight of the probe was confirmed by Matrix-Assisted Laser Desorption/Ionization Time-of-Flight Mass Spectrometry (MALDI-TOF MS).
# COS-7 cells were plated in 10 cm dishes at approximately 1 million cells/dish. Cells were transfected 24 h later, using 3 μg of Nluc-PAC1R DNA using the method described above and then seeded at a density of 15,000 cells per well in white-bottom 96-well culturplates 24 h prior to assay. On the day of the assay, cell culture media was replaced with BRET buffer (0.1% ovalbumin, 10 mM HEPES, 1x HBSS, pH 7.45) and incubated at 4 °C for two hours. […] After 1.5 h, furimazine (10 μM final concentration) was added to each well and the plate incubated for a further 30 min in the dark at 4 °C before reading. Filtered light emissions were measured at 460±40 nm (donor channel) and at 610-LP nm (long pass) (acceptor channel) using a PHERAstar plate reader (BMG Labtech). The raw NanoBRET ratio was calculated by dividing the luminescence from the acceptor channel by the donor channel. Data were expressed as % AF568-PACAP27 BRET signal in the absence of competing ligand.
# (§2) The pharmacological data in figures and tables are reported as mean + standard error of the mean (SEM) with the number of biological replicates indicated in the figure and table legends where “n” represents the number of biological replicates performed. Concentration-response data were analyzed in GraphPad Prism version 9.4.0 using a three-parameter logistic curve to derive pEC50 values for the cyclic AMP accumulation. Competition binding data were analyzed in GraphPad Prism using the one site—Fit log IC50 model to derive pIC50 values. For the cysteine mutagenesis data, comparisons of multiple different groups were performed using one-way analysis of variance (ANOVA), followed by Dunnett’s post-hoc test with the control group being the WT receptor, with significance accepted at p < 0.05. For the chimeric peptide data, comparisons of multiple different groups were performed using one-way ANOVA, followed by Tukey’s post-hoc test, with significance accepted at p < 0.05.
# [2] = molecular target: T2, PAC1R (Homo sapiens, UniProt P41586); experiment: cAMP accumulation, chimeric peptides (Fig. 5b); assay type: cell-based; conditions: COS-7, three-parameter logistic, read-out: pEC50, PAC1R cAMP (converted)
# T2 construct: An HA signal peptide was inserted in place of the native signal peptide of the receptors; HA signal peptide (replaces the native signal peptide) (N); 3C protease cleavage sites (between FLAG and receptor, and between receptor and His) (internal); expressed in transfected cells; host or cells: COS-7 (transient, PEI)
# T2 sequence (P41586 21-468): T1 sequence (P41586 21-468)
# Excerpt: as §1
# COS-7 cells were used for the chimeric peptide and cysteine mutagenesis pharmacological assays due to their lack of endogenous expression of PAC1R and receptor activity-modifying proteins, reported to potentially heterodimerize with PAC1R and VPAC1R[42]. Cells were cultured in Dulbecco’s Modified Eagle’s Medium (DMEM) (Invitrogen) supplemented with 5% v/v heat-inactivated FBS at 37 °C and […] /5% CO2 in a humidified incubator. COS-7 cells were plated in 10 cm dishes at approximately 1 million cells/dish. Cells were transfected 24 h later, with 5 µg of either WT or mutant PAC1R or VPAC1R receptor DNA. DNA and PEI (in a 1:6 ratio) were each diluted in 150 mM NaCl, and then combined and incubated for 10 min, before the mixture was added to the 10 cm dish. The next day, cells were harvested from the 10 cm dishes using Trypsin-Versene (PBS + 0.5 mM EDTA, pH 7.4), and were seeded at a density of 15,000 cells/well into clear 96-well culture plates and incubated overnight at 37 °C in 5% CO2 for cAMP accumulation assay the next day.
# The reaction was terminated after 30 min by aspiration of the buffer and addition of 50 μl of ice-cold ethanol. Upon evaporation of ethanol, 75 μl of lysis buffer (5 mM HEPES, 0.1% (w/v) OVA, 0.3% (w/v) Tween20, pH 7.4) was added to the cells. cAMP detection was performed using a LANCE cAMP Detection Kit (PerkinElmer) for the construct validation and cysteine mutagenesis pharmacological assays and cAMP Gs HiRange kit (Cisbio) for the chimeric peptide pharmacological assays. The plates were read using an EnVision plate reader with excitation at 320 nm and emission at 615 nm[45].
# as §2
# [3] = molecular target: Nluc-PAC1R (UniProt P41586); experiment: FRET or BRET; NanoBRET whole cell competition binding; COS-7 cells with Nluc-PAC1R, 30 nM AF568-PACAP27 and increasing competing peptide added together, 4 °C, BRET buffer (0.1% ovalbumin, 10 mM HEPES, 1x HBSS, pH 7.45); one site fit of log IC50
# [4] = tested on: GLP-1R; conditions: cited from earlier work
# Excerpt: In the equivalent position as R ...
# [5] = tested on: M299^PAC1R/D301^PAC1R; conditions: cited from earlier work
# Excerpt: Nonetheless, the secondary engagement of the peptide N-terminus with ECL2/ECL3 appeared to coordinate interactions that preceded the movement of the far N-terminal residues deeper into the binding pocket. Unique residues in ECL2 that differ between the V ...
# [6] = tested on: PAC1R WT, C25A, C219A, C25A/C219A; experiment: cAMP accumulation, cysteine mutagenesis (Fig. 6e, Supplementary Fig. 13d-f); assay type: cell-based; conditions: COS-7, mean of n = 3
# Protocol: (§3) Maps are shown in transparent and model backbones are shown in ribbon format. The relevant cysteines are shown as stick models, with the putative disulfide bond present. […] The data for panels d and e are the mean ± SEM, n = 3 independent experiments. Differences in potency between WT and mutant receptors was assessed using a one-way ANOVA and Dunnett’s post-test. […] Interactions are listed by percentage of occupancy of frames, with the background colouring representing maximum occupancy % (red) and minimum occupancy % (white). Receptor residue background colouring is according to their residue numbering (TM transmembrane helix, ECL3 extracellular loop 3). Table is based on data presented in Supplementary Table 4. Source data for panels d and e are provided in the Source Data file.
# as §1
# (§4) COS-7 cells were used for the chimeric peptide and cysteine mutagenesis pharmacological assays due to their lack of endogenous expression of PAC1R and receptor activity-modifying proteins, reported to potentially heterodimerize with PAC1R and VPAC1R[42]. […] COS-7 cells were plated in 10 cm dishes at approximately 1 million cells/dish. Cells were transfected 24 h later, with 5 µg of either WT or mutant PAC1R or VPAC1R receptor DNA. […]
# (§5) The reaction was terminated after 30 min by aspiration of the buffer and addition of 50 μl of ice-cold ethanol. […] The plates were read using an EnVision plate reader with excitation at 320 nm and emission at 615 nm[45].
# (§6) The pharmacological data in figures and tables are reported as mean + standard error of the mean (SEM) with the number of biological replicates indicated in the figure and table legends where “n” represents the number of biological replicates performed. Concentration-response data were analyzed in GraphPad Prism version 9.4.0 using a three-parameter logistic curve to derive pEC50 values for the cyclic AMP accumulation. Competition binding data were analyzed in GraphPad Prism using the one site—Fit log IC50 model to derive pIC50 values. […]
# [7] = tested on: VPAC1R WT, C37A, C208A; experiment: cAMP accumulation, cysteine mutagenesis (Fig. 6d, Supplementary Fig. 13a-c); assay type: cell-based; conditions: for Difference in cAMP potency (pEC50) between WT and mutant VPAC1R: COS-7, mean of n = 3
# Protocol: as §3, §1, §4, §5, §6
# [8] = tested on: VPAC2R; conditions: cited from earlier work
molecule,measurement,setting,value
"CC[C@H](C)[C@H](NC(=O)[C@H](CO)NC(=O)[C@H](CC(N)=O)NC(=O)[C@H](CC(C)C)NC(=O)[C@H](Cc1ccc(O)cc1)NC(=O)[C@H](CCCCN)NC(=O)[C@H](CCCCN)NC(=O)[C@@H](NC(=O)[C@H](C)NC(=O)[C@H](CCSC)NC(=O)[C@H](CCC(N)=O)NC(=O)[C@H](CCCCN)NC(=O)[C@H](CCCN=C(N)N)NC(=O)[C@H](CC(C)C)NC(=O)[C@H](CCCN=C(N)N)NC(=O)[C@@H](NC(=O)[C@H](Cc1ccc(O)cc1)NC(=O)[C@H](CC(N)=O)NC(=O)[C@H](CC(=O)O)NC(=O)[C@@H](NC(=O)[C@H](Cc1ccccc1)NC(=O)[C@@H](NC(=O)[C@H](C)NC(=O)[C@H](CC(=O)O)NC(=O)[C@H](CO)NC(=O)[C@@H](N)Cc1c[nH]cn1)C(C)C)[C@@H](C)O)[C@@H](C)O)C(C)C)C(=O)N[C@@H](CC(C)C)C(=O)N[C@@H](CC(N)=O)C(N)=O [VIP, vasoactive intestinal peptide, reference compound]",IC50,[1]; replicate n=1,4.5 µM
same,IC50,[1]; replicate n=2,8.09 µM
same,IC50,[1]; replicate n=3,12.7 µM
same,IC50,[1]; replicate n=4,15.7 µM
same,IC50,[1]; replicate n=5,7.14 µM
same,EC50,[2]; replicate n=1,0.0385 µM
same,EC50,[2]; replicate n=2,0.0309 µM
same,EC50,[2]; replicate n=3,0.0433 µM
same,EC50,[2]; replicate n=4,0.0764 µM
same,EC50,[2]; replicate n=5,0.104 µM
Ala4 PACAP27 (peptide),fold reduction in pIC50 relative to PACAP27,[3],30 fold
GLP-1: glucagon-like peptide 1,GLP-1 affinity with R380 of GLP-1R switched to the VPAC1R residue,[4],reduced GLP-1 affinity
same,"GLP-1 potency for cAMP production at GLP-1R D372A, E373A",[4],reduced GLP-1 potency for cAMP production
"PACAP38: PACAP38, a 38 amino acid peptide",PACAP38-mediated cAMP production with alanine mutation of M299/D301 PAC1R,[5],reduced PACAP38-mediated cAMP production
same,Difference in cAMP potency (pEC50) between WT and mutant PAC1R,[6]; C25A C219A,-0.4376
same,Difference in cAMP potency (pEC50) between WT and mutant PAC1R,[6]; C25A,-0.9347
same,Difference in cAMP potency (pEC50) between WT and mutant PAC1R,[6]; C219A,-0.4471
same,Difference in cAMP potency (pEC50) between WT and mutant PAC1R,[6]; WT,0
same,Difference in cAMP potency (pEC50) between WT and mutant VPAC1R,[7]; C37A,-0.5843
same,Difference in cAMP potency (pEC50) between WT and mutant VPAC1R,[7]; C208A,-0.568
same,"reduction in cAMP potency at single cysteine mutants of either receptor, compared with VIP","[7]; VPAC1R and PAC1R single mutants (Fig. 6d, e), only significant for PACAP27 at C37A VPAC1R or C25A PAC1R",much smaller reduction in potency
same,Difference in cAMP potency (pEC50) between WT and mutant VPAC1R,[7]; WT,0
pituitary adenylate cyclase-activating polypeptide [PACAP],VPAC2R affinity,[8],high affinity
